Results as given in patent US20240279298A1 (BEIJING TUO JIE BIOPHARMACEUTICAL CO. LTD., priority 2021, published 2024).
Converted amounts (≈) assume the structure as drawn. Where a SMILES comes first, the peptide text is derived from it. [ ]: non-standard residue; d: D form. Aib = CC(C)(N)C(=O)O

Tests used:
[1] = target: human glucose-dependent insulinotropic polypeptide receptor (GIPR) (human) (UniProt P48546); experiment: cell-based or functional assay
[2] = target: T1, human glucagon receptor (GCGR) (Homo sapiens, UniProt P47871); experiment: Agonist activity assay for GCGR (cAMP HTRF); format: cell-based; conditions: normalized by the activity of the native glucagon
T1 construct: expressed in transfected cells
T1 sequence (P47871 26-477): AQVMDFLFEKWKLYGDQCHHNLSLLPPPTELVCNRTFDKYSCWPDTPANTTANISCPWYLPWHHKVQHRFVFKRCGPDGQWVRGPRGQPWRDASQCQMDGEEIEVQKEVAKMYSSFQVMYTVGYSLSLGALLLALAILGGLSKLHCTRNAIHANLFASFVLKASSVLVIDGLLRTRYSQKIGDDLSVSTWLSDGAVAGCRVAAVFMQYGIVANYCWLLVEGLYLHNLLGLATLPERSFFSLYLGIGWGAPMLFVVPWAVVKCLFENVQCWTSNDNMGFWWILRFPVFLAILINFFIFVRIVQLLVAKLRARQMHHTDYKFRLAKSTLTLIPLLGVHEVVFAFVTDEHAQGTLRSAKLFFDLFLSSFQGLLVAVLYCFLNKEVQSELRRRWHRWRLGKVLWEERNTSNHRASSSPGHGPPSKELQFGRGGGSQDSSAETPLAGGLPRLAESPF
Method: The activation of GCGR by related compounds will stimulate the formation of cyclic adenosine monophosphate (cAMP) in cells. Thus, the receptor activity can be monitored by cAMP production in proper cells expressing the receptor. […] The cells were passaged at least once for subsequent tests. Before testing, the cells were trypsinized, centrifuged, washed once, and resuspended in serum-free DMEM/F12 medium. The cell density was adjusted, and the cells were plated in a 96-well plate at a density of 2,500 cells/5 μL/well. […] The mixture was mixed well by moderate vibration, and incubated for 1 hour at room temperature away from light.

[3] = Maximum solubility in phosphate buffer pH 7.4; format: physicochemical; conditions: phosphate buffer pH 7.4, room temperature
human GIPR = target: T2, human GIPR (Homo sapiens, UniProt P48546); experiment: Agonist activity assay for GIPR (cAMP HTRF); format: cell-based; conditions: for EC50: CHO-K1/GIPR cell line, cAMP
T2 construct: expressed in transfected cells
T2 sequence (P48546 22-466): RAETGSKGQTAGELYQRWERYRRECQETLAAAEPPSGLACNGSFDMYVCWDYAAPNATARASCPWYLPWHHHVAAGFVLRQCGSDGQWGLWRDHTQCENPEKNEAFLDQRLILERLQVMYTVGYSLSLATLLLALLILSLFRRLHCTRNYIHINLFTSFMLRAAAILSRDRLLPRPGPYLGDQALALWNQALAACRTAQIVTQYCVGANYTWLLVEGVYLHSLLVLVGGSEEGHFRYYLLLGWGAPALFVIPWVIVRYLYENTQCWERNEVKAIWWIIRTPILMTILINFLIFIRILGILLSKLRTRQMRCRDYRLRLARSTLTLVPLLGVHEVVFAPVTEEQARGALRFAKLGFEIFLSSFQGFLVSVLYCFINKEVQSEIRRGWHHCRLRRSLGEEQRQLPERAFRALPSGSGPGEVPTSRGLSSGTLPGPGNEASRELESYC
Method: (§1) The activation of GCGR by related compounds will stimulate the formation of cyclic adenosine monophosphate (cAMP) in cells. Thus, the receptor activity can be monitored by cAMP production in proper cells expressing the receptor.
(§2) Agonist activity assay for GCGR: Cryopreserved stable CHO-K1/GCGR/CRE-Luc cells were taken from a liquid nitrogen tank, thawed in a 37° C. water bath, resuspended in DMEM/F12 medium (Sigma Cat #D8437), centrifuged, and seeded into T75 culture flasks. The cells were passaged at least once for subsequent tests. Before testing, the cells were trypsinized, centrifuged, washed once, and resuspended in serum-free DMEM/F12 medium. The cell density was adjusted, and the cells were plated in a 96-well plate at a density of 2,500 cells/5 μL/well. A 1×buffer solution in Cisbio-cAMP-Gs Dynamic kit was prepared, and IBMX was added at a final concentration of 0.5 mM. 5 μL of polypeptide serially diluted by buffer was added into each well, and the plate was shaken gently for mixing and incubated for 30 minutes at 37° C. cAMP-d2 and Anti-cAMP-Eu^3+-Cryptate were 20-fold diluted with cAMP Lysis and detection buffer respectively and mixed well. 5 μL of diluted cAMP-d2 solution and 5 μL of diluted Anti-cAMP-Eu^3+-Cryptate solution were sequentially added into each well. The mixture was mixed well by moderate vibration, and incubated for 1 hour at room temperature away from light.
Agonist activity assay for GIPR: The method differed from the method described above for the agonist activity assay for GCGR in that a stable CHO-K1/GIPR cell line was used, and the cell density was 3,000 cells/5 μL/well.

[4] = Chemical stability in phosphate buffer (UPLC purity); format: physicochemical; conditions: phosphate buffer pH 7.4, 1 mg/mL; for Purity Day 0: day 0 (normalization)
Method: The compound purity was calculated by the percentage area of the main peak in the chromatograms relative to the total area of all integrated peaks, normalized by the purity of the sample on day 0 for the purity.

human GLP-1R = target: T3, human GLP-1R (Homo sapiens, UniProt P43220); experiment: Agonist activity assay for GLP-1R (cAMP HTRF); format: cell-based
T3 construct: expressed in transfected cells
T3 sequence (P43220 24-463): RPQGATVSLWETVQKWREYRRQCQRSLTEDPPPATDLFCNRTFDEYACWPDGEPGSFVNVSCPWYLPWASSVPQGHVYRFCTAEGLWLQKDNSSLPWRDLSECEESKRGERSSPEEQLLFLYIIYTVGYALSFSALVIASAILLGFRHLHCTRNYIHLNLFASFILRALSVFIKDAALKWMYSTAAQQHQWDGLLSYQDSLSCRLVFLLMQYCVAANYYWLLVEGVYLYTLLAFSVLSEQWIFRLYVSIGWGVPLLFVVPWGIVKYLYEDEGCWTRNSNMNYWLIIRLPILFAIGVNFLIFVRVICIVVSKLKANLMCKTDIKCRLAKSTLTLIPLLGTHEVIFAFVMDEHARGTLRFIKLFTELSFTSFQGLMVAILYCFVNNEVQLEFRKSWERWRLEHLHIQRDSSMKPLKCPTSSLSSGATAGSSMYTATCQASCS
Method: as §1, §2
Agonist activity assay for GLP-1R: The method differed from the method described above for the agonist activity assay for GCGR in that a stable CHO-GLP-1R cell line was used.

| Molecule | GIPR % Activity relative to native GIP, cAMP HTRF [1] [%] | GIPR EC50 (nM), cAMP HTRF in CHO-K1/GIPR cells [1] [nM] | Relative activity [2] [%] | solubility at 5 min [3] [µg/mL] | EC50 (human GIPR) [nM] | GIPR % Activity relative to native GIP (human GIPR) [%] | Purity Day 7 ([4]; 4° C.) [%] | Purity Day 14 ([4]; 4° C.) [%] | Purity Day 21 ([4]; 4° C.) [%] | Purity Day 28 ([4]; 4° C.) [%] | Purity Day 7 ([4]; 25° C.) [%] | Purity Day 14 ([4]; 25° C.) [%] | Purity Day 21 ([4]; 25° C.) [%] | Purity Day 28 ([4]; 25° C.) [%] | Purity Day 0 [4] [%] | GLP-1R % Activity relative to native GLP-1 (human GLP-1R) [%] |
| --- | --- | --- | --- | --- | --- | --- | --- | --- | --- | --- | --- | --- | --- | --- | --- | --- |
| human GIP (1-42) (from UniProt P09681 52-93) (ligand) | 100 | 0.0652 |  |  |  |  |  |  |  |  |  |  |  |  |  |  |
| CC(C)C[C@H](NC(=O)[C@H](Cc1c[nH]c2ccccc12)NC(=O)[C@H](CCC(N)=O)NC(=O)[C@@H](NC(=O)[C@H](Cc1ccccc1)NC(=O)[C@H](CCC(=O)O)NC(=O)[C@H](CCC(N)=O)NC(=O)[C@H](C)NC(=O)[C@H](CCCNC(=N)N)NC(=O)C(C)(C)NC(=O)[C@@H](NC(=O)[C@H](CC(=O)O)NC(=O)[C@H](CC(C)C)NC(=O)[C@H](Cc1ccc(O)cc1)NC(=O)[C@H](CCCCN)NC(=O)[C@H](CO)NC(=O)[C@H](Cc1ccc(O)cc1)NC(=O)[C@H](CC(=O)O)NC(=O)[C@H](CO)NC(=O)[C@@H](NC(=O)[C@H](Cc1ccccc1)NC(=O)[C@@H](NC(=O)CNC(=O)[C@H](CCC(N)=O)NC(=O)[C@H](CO)NC(=O)[C@@H](N)Cc1c[nH]cn1)[C@@H](C)O)[C@@H](C)O)[C@@H](C)O)C(C)C)C(=O)N[C@@H](CCC(=O)O)C(=O)N[C@@H](CO)C(=O)N[C@H](C(=O)O)[C@@H](C)O [Compound 39] (H-HSQGTFTSDYSKYLDT[Aib]RAQEFVQWLEST-OH) |  |  | 268 | > 4790 | > 100 | <0.0700 | 97.24 | 97.45 | 95.71 | 94.88 | 94.64 | 93.86 | 91.35 | 91.85 | 100.00 | 0.212 |
| CC(C)C[C@H](NC(=O)[C@H](Cc1c[nH]c2ccccc12)NC(=O)[C@H](CCC(N)=O)NC(=O)[C@@H](NC(=O)[C@H](Cc1ccccc1)NC(=O)[C@H](CCC(=O)O)NC(=O)[C@H](CCC(N)=O)NC(=O)[C@H](C)NC(=O)[C@H](CCCNC(=N)N)NC(=O)C(C)(C)NC(=O)[C@@H](NC(=O)[C@H](CC(=O)O)NC(=O)[C@H](CC(C)C)NC(=O)[C@H](Cc1ccc(O)cc1)NC(=O)[C@H](CCCCN)NC(=O)[C@H](CO)NC(=O)[C@H](Cc1ccc(O)cc1)NC(=O)[C@H](CC(=O)O)NC(=O)[C@H](CO)NC(=O)[C@@H](NC(=O)[C@H](Cc1ccccc1)NC(=O)[C@@H](NC(=O)CNC(=O)[C@H](CCC(N)=O)NC(=O)[C@H](CO)NC(=O)[C@@H](N)Cc1c[nH]cn1)[C@@H](C)O)[C@@H](C)O)C(C)C)C(C)C)C(=O)N[C@@H](CCC(=O)O)C(=O)N[C@@H](CO)C(=O)N[C@H](C(=O)O)[C@@H](C)O [Compound 41] (H-HSQGTFTSDYSKYLDV[Aib]RAQEFVQWLEST-OH) |  |  | 333 | 2560 (≈ 751 µM) | > 100 | <0.0700 | 98.77 | 93.35 | 89.45 | 89.12 | 82.25 | 68.13 | 49.04 | 33.47 | 100.00 | 0.231 |
